Patent publication US11072617B2, “Bicyclic sulfones and sulfoxides and methods of use thereof” (Genentech, Inc., priority 2017, dated 2021)

Target: human RIP1 kinase domain (2-375) (Homo sapiens (Human), UniProt Q13546)
Assay: RIP1 kinase inhibition biochemical assay (Transcreener ADP, fluorescence polarization)
Details: Ki app from tight-binding Morrison equation; 50 nM enzyme, 50 uM ATP, 2 hours incubation
Method: RIP1 Kinase Inhibition Assays (Biochemical Assay)
The compounds of the present invention were tested for their capacity to inhibit RIP1K activity as described below.
The ability of the receptor interacting protein kinase (RIPK1) to catalyze the hydrolysis of adenosine-5′-triphosphate (ATP) is monitored using the Transcreener ADP (adenosine-5′-diphosphate) assay (BellBrook Labs). Purified human RIP1 kinase domain (2-375) (50 nM) derived from a baculovirus-infected insect cell expression system is incubated with test compounds for 2 hours in 50 mM Hepes buffer (pH 7.5) containing 30 mM MgCl2, 1 mM dithiothreitol, 50 uM ATP, 0.002% Brij-35, and 0.5% dimethyl sulfoxide (DMSO). Reactions are quenched by the addition of 1× Bell Brooks Stop buffer B (20 mM Hepes (ph7.5), 40 mM ethylenediaminetetraacetic acid and 0.02% Brij-35) containing an additional 12 mM EDTA and 55 ug/mL ADP2 antibody and 4 nM ADP-AlexaFluor® 633 tracer. The tracer bound to the antibody is displaced by the ADP generated during the RIP1K reaction, which causes a decrease in fluorescence polarization that is measured by laser excitation at 633 nm with a FP microplate reader M1000. Fractional activity was plotted against test article concentration. Using Genedata Screener software (Genedata; Basel, Switzerland), the data were fit to the tight-binding apparent inhibition constant (Ki^app) Morrison equation [Williams, J. W. and Morrison, J. F. (1979) The kinetics of reversible tight-binding inhibition. Methods Enzymol 63: 437-67]. The following equation was used to calculate fractional activity and Ki^app:
[formula] where [E]T and [I]T are the total concentrations of active enzyme and test article, respectively.
Exemplary compounds of the present invention are provided in Table 1 along with their physiochemical characterization and in vitro RIP1 kinase inhibitory activity data. “Method” in the first column of each table refers to the synthetic method(s) used to prepare each compound as shown in the Examples above. In certain examples, chiral column retention times (min) are provided for certain stereoisomers. Unless otherwise specified, the stereochemistry shown in each structure represents relative configuration of a single stereoisomer, and absolute configuration (i.e., “R” and/or “S”) is arbitrarily assigned. In some embodiments, where the Method is described to include the separation of stereoisomers, a single stereoisomer of a compound of Table 1 is provided.

Sequence of human RIP1 kinase domain (2-375) (Q13546 2-375): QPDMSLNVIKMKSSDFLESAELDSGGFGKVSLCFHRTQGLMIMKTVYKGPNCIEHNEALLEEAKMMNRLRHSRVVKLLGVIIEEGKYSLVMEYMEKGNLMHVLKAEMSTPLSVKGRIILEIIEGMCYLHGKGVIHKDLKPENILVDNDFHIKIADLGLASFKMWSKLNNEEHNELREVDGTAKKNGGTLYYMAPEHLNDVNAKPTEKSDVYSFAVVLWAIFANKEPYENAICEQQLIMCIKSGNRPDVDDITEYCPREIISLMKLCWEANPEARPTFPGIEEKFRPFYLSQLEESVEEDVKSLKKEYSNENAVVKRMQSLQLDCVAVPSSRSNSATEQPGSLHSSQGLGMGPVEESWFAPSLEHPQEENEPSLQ

| SMILES | Ki [nM] |
| --- | --- |
| O=S(=O)(c1nc2n(n1)[C@H](c1cc(F)cc(Cl)c1)C[C@@H]2F)C1CC1 (single isomer, unassigned) [Example 214] | 29 |
| O=S(=O)(c1nc2n(n1)[C@H](c1ccccc1)C[C@@H]2F)C1(C(F)F)CC1 (single isomer, unassigned) [Example 155] | 4.8 |
| [O-][S@+](c1nc2n(n1)[C@H](c1ccccc1)C[C@@H]2F)C1CC1 [Example 29, (5S,7S)-2-[(S)-cyclopropylsulfinyl]-7-fluoro-5-phenyl-6,7-dihydro-5H-pyrrolo[1,2-b][1,2,4]triazole] | 4 |
| CC[S@+]([O-])c1nc2n(n1)[C@H](c1ccccc1)C[C@@H]2F (single isomer, unassigned) [Example 190] | 8 |
| N#CC[S@@+]([O-])c1nc2n(n1)[C@H](c1ccccc1Cl)C[C@@H]2F (single isomer, unassigned) [Example 94] | 4 |
| CCCS(=O)(=O)c1nc2n(n1)[C@H](c1ccccc1)C[C@@H]2F (single isomer, unassigned) [Example 161] | 26 |
| O=S(=O)(c1nc2n(n1)[C@H](c1ccccc1)C[C@@H]2F)C(F)(F)CO (single isomer, unassigned) [Example 156] | 270 |
| [O-][S@+](CF)c1nc2n(n1)[C@H](c1ccccc1Cl)C[C@@H]2F (single isomer, unassigned) [Example 87] | 100 |
| O=S(=O)(c1nc2n(n1)C(c1ccccc1)CC2)C(F)F (racemic) [Example 6] | 101 |
| O=S(=O)(c1nc2n(n1)[C@H](c1ccc(F)cc1)C[C@@H]2F)C1CC1 (single isomer, unassigned) [Example 34] | 10 |
| [O-][S@+](CF)c1nc2n(n1)[C@H](c1cccc(F)c1)C[C@@H]2F (single isomer, unassigned) [Example 83] | 130 |
| O=S(=O)(c1nc2n(n1)[C@H](c1c(F)cccc1F)C[C@@H]2F)C(F)(F)F (single isomer, unassigned) [Example 139] | 5 |
| O=S(=O)(c1nc2n(n1)[C@H](c1cccc(F)c1F)C[C@@H]2F)[C@@H]1CC1(F)F (single isomer, unassigned) [Example 128] | 10 |
| O=S(=O)(c1nc2n(n1)[C@H](c1cc(F)cc(F)c1)C[C@@H]2F)C1CC1 (single isomer, unassigned) [Example 42] | < 5 |
| O=S(=O)(c1nc2n(n1)[C@H](c1cccc(Cl)c1)C[C@@H]2F)C1CC1 [Example 203, (5S,7S)-5-(3-chlorophenyl)-2-cyclopropylsulfonyl-7-fluoro-6,7-dihydro-5H-pyrrolo[1,2-b][1,2,4]triazole] | 39 |
| [O-][S@@+](c1nc2n(n1)[C@H](c1cccc(F)c1)C[C@@H]2F)C(F)F (single isomer, unassigned) [Example 179] | 210 |
| O=S(=O)(c1nc2n(n1)[C@H](c1cc(F)ccc1F)C[C@@H]2F)C1CC1F (stereo in doubt) [Example 201, (5S,7S)-5-(2,5-difluorophenyl)-7-fluoro-2-[(1S,2S)-2-fluorocyclopropyl]sulfonyl-6,7-dihydro-5H-pyrrolo[1,2-b][1,2,4]triazole] | 25 |
| N#CC[S@+]([O-])c1nc2n(n1)[C@H](c1ccccc1Cl)C[C@@H]2F (single isomer, unassigned) [Example 93] | 92 |
| [O-][S@@+](c1nc2n(n1)[C@H](c1ccccc1F)C[C@@H]2F)C(F)F (single isomer, unassigned) [Example 51] | 140 |
| O=S(=O)(c1nc2n(n1)[C@H](c1ccccc1F)C[C@@H]2F)C1CC1 [Example 33, (5S,7S)-2-cyclopropylsulfonyl-7-fluoro-5-(2-fluorophenyl)-6,7-dihydro-5H-pyrrolo[1,2-b][1,2,4]triazole] | 5 |
| O=S(=O)(c1nc2n(n1)[C@H](c1ccccc1Cl)C[C@@H]2F)C(F)(F)F (single isomer, unassigned) [Example 134] | 3 |
| O=S(=O)(c1nc2n(n1)[C@H](c1c(F)ccc(F)c1F)C[C@@H]2F)C1CC1 (single isomer, unassigned) [Example 38] | 10 |

| SMILES | Ki [nM] |
| --- | --- |
| O=S(=O)(c1nc2n(n1)[C@H](c1cccc(F)c1F)C[C@@H]2F)C(F)F (single isomer, unassigned) [Example 68] | 6 |
| [O-][S+](CC(F)(F)F)c1nc2n(n1)[C@H](c1ccccc1)C[C@@H]2F (stereo partly drawn) [Example 113, (5S,7S)-7-fluoro-5-phenyl-2-(2,2,2-trifluoroethylsulfinyl)-6,7-dihydro-5H-pyrrolo[1,2-b][1,2,4]triazole] | 28 |
| O=S(=O)(c1nc2n(n1)[C@H](c1ccccc1)C[C@@H]2F)C1(F)CC1 (single isomer, unassigned) [Example 178] | 6 |
| O=S(=O)(c1nc2n(n1)[C@H](c1ccccc1)C[C@@H]2F)[C@H]1C[C@H](F)C1 (single isomer, unassigned) [Example 164] | < 5 |
| [2H][C@H]1C[C@@H](c2ccccc2)n2nc(S(=O)(=O)C3CC3)nc21 [Example 41, (5S,7S)-2-cyclopropylsulfonyl-7-deuterio-5-phenyl-6,7-dihydro-5H-pyrrolo[1,2-b][1,2,4]triazole] | 140 |
| N#C[C@@H]1C[C@H]1S(=O)(=O)c1nc2n(n1)[C@H](c1ccccc1)C[C@@H]2F [Example 212, (1S,2R)-2-[[(5S,7S)-7-fluoro-5-phenyl-6,7-dihydro-5H-pyrrolo[1,2-b][1,2,4]triazol-2-yl]sulfonyl]cyclopropanecarbonitrile] | 11 |
| [O-][S@+](c1nc2n(n1)[C@H](c1ccccc1Cl)CC2)C(F)F [Example 18, (5S)-5-(2-chlorophenyl)-2-[(R)-difluoromethylsulfinyl]-6,7-dihydro-5H-pyrrolo[1,2-b][1,2,4]triazole] | 8 |
| O=S(=O)(c1nc2n(n1)[C@H](c1cccc(F)c1Cl)C[C@@H]2F)C1CC1 (single isomer, unassigned) [Example 45] | < 5 |
| O=S(=O)(c1nc2n(n1)[C@@H](c1ccccc1Cl)CC2)C(F)F [Example 15, (5R)-5-(2-chlorophenyl)-2-(difluoromethylsulfonyl)-6,7-dihydro-5H-pyrrolo[1,2-b][1,2,4]triazole] | 1600 |
| O=S(=O)(c1nc2n(n1)[C@H](c1ccc(F)cc1)C[C@@H]2F)C1CC1F (stereo in doubt) [Example 196, (5S,7S)-7-fluoro-5-(4-fluorophenyl)-2-[(1S,2S)-2-fluorocyclopropyl]sulfonyl-6,7-dihydro-5H-pyrrolo[1,2-b][1,2,4]triazole] | 32 |
| N#CC[S@@+]([O-])c1nc2n(n1)[C@H](c1ccccc1F)C[C@@H]2F (single isomer, unassigned) [Example 96] | 3 |
| [O-][S+](c1nc2n(n1)C(c1cc(F)cc(F)c1)CC2)C(F)F (stereo not shown) [Example 176, 2-(Difluoromethylsulfinyl)-5-(3,5-difluorophenyl)-6,7-dihydro-5H-pyrrolo[1,2-b][1,2,4]triazole] | 110 |
| O=S(=O)(CCOC(F)F)c1nc2n(n1)[C@H](c1ccccc1)C[C@@H]2F (single isomer, unassigned) [Example 198] | 68 |
| N#CC[S@+]([O-])c1nc2n(n1)[C@H](c1ccccc1F)C[C@@H]2F (single isomer, unassigned) [Example 95] | 190 |
| C[C@H](F)S(=O)(=O)c1nc2n(n1)[C@H](c1ccccc1)C[C@@H]2F (single isomer, unassigned) [Example 160] | 18 |
| N#CC[S@+]([O-])c1nc2n(n1)[C@@H](c1ccccc1Cl)C[C@H]2F (single isomer, unassigned) [Example 101] | 47 |
| O=S(=O)(c1nc2n(n1)[C@H](c1ccccc1)C[C@@H]2F)[C@H]1C[C@@H]1F (single isomer, unassigned) [Example 146] | 4 |
| CC[S+]([O-])c1nc2n(n1)[C@H](c1ccccc1)C[C@@H]2F (stereo partly drawn) [Example 107, (5S,7S)-2-ethylsulfinyl-7-fluoro-5-phenyl-6,7-dihydro-5H-pyrrolo[1,2-b][1,2,4]triazole] | 34 |
| O=S(=O)(c1nc2n(n1)[C@H](c1cccc(Cl)c1F)C[C@@H]2F)C1CC1 (single isomer, unassigned) [Example 46] | 20 |
| CS(=O)(=O)c1nc2n(n1)[C@H](c1ccccc1)C[C@@H]2F (single isomer, unassigned) [Example 106] | 22 |
| O=S(=O)(c1nc2n(n1)[C@H](c1cccc(F)c1)C[C@@H]2F)[C@H]1C[C@@H](O)C1 (single isomer, unassigned) [Example 195] | 460 |
